Measurements reported in patent publication US4931444A, “5-lipoxygenase inhibiting 4-(4-phenyl-1-piperazinyl)phenols” (Janssen Pharmaceutica N.V., priority 1989, dated 1990).

Legend:
[1] = test system: Dextran-induced edema formation in the ears of mice; experiment: Inhibition of Dextran-induced edema formation in the ears of mice; assay type: in vivo, male Swiss mice; conditions: Column B, at 10 mg/kg body weight, 1 h before dextran; for inhibition in vivo at 10 mg/kg: Mus musculus, po, read-out: inhibition of Dextran-induced blueing of the ears of mice, % inhibition
From the text: Inhibition of Dextran-induced edema formation in the ears of mice.
Intravenous injection of Dextran T500® (Pharmacia) and pontamine sky-blue dye into mice results in increased vascular permeability and edema formation, characterized by an intense blueing of the ears. Determination of the amount of extravasated dye is presumed to yield a quantitative measure of the 5-lipoxygenase inhibiting activity of the test compounds (Drug. Dev. Res. 8, 213-218, 1986). Unfasted male Swiss mice weighing 24-26 g were used in the experiments which were performed between 13.00 pm and 17.00 pm at an ambient temperature of 22±1° C. The mice were treated orally with a test compound of formula (I) dissolved in a volume of […] of either polyethyleneglycol (PEG 200) or hydroxypropyl cyclodextrine at doses varying between 1.25 and 40 mg per kg bodyweight. In control experiments the mice were administered an identical amount of solvent alone. One hour after treatment there was injected intravenously an isotonic saline solution containing 60 mg/ml Dextran T500® and 13 mg/ml pontamine sky-blue dye in a volume of 0.1 ml per 10 g bodyweight. One hour and forty-five minutes later the animals were sacrificed by ether and their ears were removed. Extraction and quantification of the extravasated dye were performed as described (Drug Dev. Res. 8, 213-218, 1986). The calculated percentage of inhibition of ear blueing upon administration of a compound of formula (I) at a dose of 10 mg/kg bodyweight is shown in the second column of table 12.

5-lipoxygenase = target: T1, 5-lipoxygenase (Rattus norvegicus, UniProt P12527); experiment: Arachidonate 5-lipoxygenase inhibition in Rat Basophilic Leukemia Cells Supernatant; assay type: biochemical; design: dose or concentration left out as unconfirmed; conditions: Column A, 5-HPETE and LTB4 formation; for inhibition: read-out: 5-lipoxygenase inhibition in RBL cells supernatant, % inhibition
T1 construct: The supernatant, aliquoted and stored at -70° C., was used as the source of 5-lipoxygenase activity; endogenous in cells; host or cells: Rat basophilic leukemia (RBL) cells, 10,000×g supernatant of the sonicate (crude, not purified)
T1 sequence (P12527 1-673): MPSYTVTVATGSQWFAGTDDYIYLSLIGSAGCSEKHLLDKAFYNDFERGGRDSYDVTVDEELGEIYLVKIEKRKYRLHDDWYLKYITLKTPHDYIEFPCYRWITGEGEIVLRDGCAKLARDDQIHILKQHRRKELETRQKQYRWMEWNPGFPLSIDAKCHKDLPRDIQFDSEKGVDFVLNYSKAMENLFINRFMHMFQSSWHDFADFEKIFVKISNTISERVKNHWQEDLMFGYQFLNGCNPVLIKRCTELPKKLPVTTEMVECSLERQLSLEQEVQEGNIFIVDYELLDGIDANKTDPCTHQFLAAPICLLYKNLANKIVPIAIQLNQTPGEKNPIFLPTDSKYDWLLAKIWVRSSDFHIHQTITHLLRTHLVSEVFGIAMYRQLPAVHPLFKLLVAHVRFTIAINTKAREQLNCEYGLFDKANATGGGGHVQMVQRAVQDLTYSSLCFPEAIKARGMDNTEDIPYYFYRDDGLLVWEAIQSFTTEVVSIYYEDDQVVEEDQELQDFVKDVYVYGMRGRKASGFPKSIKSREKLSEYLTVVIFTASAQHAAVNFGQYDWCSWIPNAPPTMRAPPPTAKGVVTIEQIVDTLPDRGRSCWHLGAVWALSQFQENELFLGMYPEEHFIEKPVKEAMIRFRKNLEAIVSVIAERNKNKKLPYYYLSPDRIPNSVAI

inhibition (5-lipoxygenase) [%] | 5-lipoxygenase inhibition in RBL cells supernatant, % inhibition (5-lipoxygenase) [%] | SMILES | inhibition in vivo at 10 mg/kg [1] [%] | inhibition of Dextran-induced blueing of the ears of mice, % inhibition ([1]; oral) [%]
93 |  | Cc1cc(N2CCN(c3ccc(-n4c(C)nn(C(C)C(=O)c5ccc(Br)cc5)c4=O)cc3)CC2)cc(C)c1O (centres unmarked) [Compound 7.51, 2-[2-(4-bromophenyl)-1-methyl-2-oxoethyl]-2,4-dihydro-4-[4-[4-(4-hydroxy-3,5-dimethylphenyl)-1-piperazinyl]phenyl]-5-methyl-3H-1,2,4-triazol-3-one] | 83 | 
100 |  | CC(C(=O)c1cccc(Cl)c1)n1ncn(-c2ccc(N3CCN(c4ccc(O)cc4)CC3)cc2)c1=O (centres unmarked) [Compound 7.37] | 73 | 
 | 91 | CC(C(O)c1ccc(Cl)cc1Cl)n1ncn(-c2ccc(N3CCN(c4ccc(O)cc4)CC3)cc2)c1=O (centres unmarked) [Compound 7.23] |  | 94
81 |  | CN1C(=S)N(c2ccc(N3CCN(c4ccc(O)cc4)CC3)cc2)C(=O)C1(C)C [Compound 5.12] | 88 | 
